Where “and” joins values, the source holds several entries; their conditions need not be identical. Equal values may be shown once. Read-outs that look alike come from different tables or passages of the source. Positions of bridges follow the written chain, without caps; N, C: chain ends. Residues, ends and D or L forms follow the SMILES beside them.

The text below walks through data of paper PMC10758494 (Frontiers in Pharmacology, 2023).

For one assay, the target named is T1, human α7 nAChR (Homo sapiens, UniProt P36544).
T1 construct: α7 nAChR endogenously expressed in neuroblastoma SH-SY5Y cells; endogenous in cells; host or cells: SH-SY5Y human neuroblastoma cells
T1 sequence (P36544 23-502): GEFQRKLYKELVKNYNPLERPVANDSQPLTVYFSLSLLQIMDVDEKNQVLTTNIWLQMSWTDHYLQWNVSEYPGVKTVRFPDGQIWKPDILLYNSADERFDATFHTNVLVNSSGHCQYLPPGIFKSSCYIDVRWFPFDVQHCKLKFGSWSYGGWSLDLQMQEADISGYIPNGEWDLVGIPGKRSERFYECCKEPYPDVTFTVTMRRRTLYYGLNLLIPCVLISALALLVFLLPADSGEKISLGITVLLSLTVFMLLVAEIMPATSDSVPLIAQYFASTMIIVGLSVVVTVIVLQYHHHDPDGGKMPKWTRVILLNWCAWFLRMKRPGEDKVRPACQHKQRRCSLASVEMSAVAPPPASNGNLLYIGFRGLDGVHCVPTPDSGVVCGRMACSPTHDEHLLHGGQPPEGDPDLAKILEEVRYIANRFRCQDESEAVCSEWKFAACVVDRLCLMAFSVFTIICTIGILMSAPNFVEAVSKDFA
The assay can be described thus: cell-based. Particulars: for inhibition at 500 µM: read-out: Inhibition of PNU282987-evoked response.

For assay [1], the target named is T2, human α9α10 nAChR (Homo sapiens, UniProt Q9GZZ6+Q9UGM1).
T2 construct: expressed in transfected cells; host or cells: Xenopus laevis oocytes injected with cRNA
T2 sequence (Q9UGM1 26-479 limits assumed): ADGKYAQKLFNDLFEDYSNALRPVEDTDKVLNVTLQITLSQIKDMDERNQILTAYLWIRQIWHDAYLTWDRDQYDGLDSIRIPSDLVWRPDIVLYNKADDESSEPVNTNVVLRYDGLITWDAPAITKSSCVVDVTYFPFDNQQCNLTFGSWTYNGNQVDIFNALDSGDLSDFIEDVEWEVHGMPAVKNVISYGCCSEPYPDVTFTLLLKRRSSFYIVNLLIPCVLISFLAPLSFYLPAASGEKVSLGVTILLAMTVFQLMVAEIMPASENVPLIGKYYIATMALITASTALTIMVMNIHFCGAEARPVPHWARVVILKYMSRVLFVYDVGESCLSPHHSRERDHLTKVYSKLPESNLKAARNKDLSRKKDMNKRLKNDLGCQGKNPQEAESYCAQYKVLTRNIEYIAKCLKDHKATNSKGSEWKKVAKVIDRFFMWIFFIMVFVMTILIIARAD
T2 sequence (Q9GZZ6 25-450): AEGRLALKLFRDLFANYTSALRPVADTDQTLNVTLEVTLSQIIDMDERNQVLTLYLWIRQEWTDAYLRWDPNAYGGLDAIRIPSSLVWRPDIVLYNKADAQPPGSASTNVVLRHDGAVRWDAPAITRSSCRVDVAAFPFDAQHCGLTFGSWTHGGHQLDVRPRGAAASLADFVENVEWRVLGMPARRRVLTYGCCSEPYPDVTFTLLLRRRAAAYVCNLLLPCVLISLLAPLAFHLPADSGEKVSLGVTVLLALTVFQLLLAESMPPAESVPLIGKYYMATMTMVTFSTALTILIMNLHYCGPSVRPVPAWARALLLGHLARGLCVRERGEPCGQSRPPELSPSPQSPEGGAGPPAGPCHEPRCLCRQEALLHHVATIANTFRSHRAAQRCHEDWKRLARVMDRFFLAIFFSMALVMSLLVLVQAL
On the set-up: method as in Lebedev et al., 2019. Particulars: read-out: IC50 on α9α10 nAChR; 95% CI in brackets; ref Lebedev et al., 2019; cited from earlier work.

Assay [2] deals with T2, human α9α10 nAChR. The assay can be described thus: Two-electrode voltage clamp, human α9α10 nAChR in X. laevis oocytes. Particulars: IC50, inhibition of ACh-evoked currents (α9α10 nAChR), 500 μM ACh, mean ± SEM. The format is cell-based. (In general: Two-electrode voltage clamp is typically applied to oocytes expressing channels or transporters.)
The target in a further assay is T3, rat α9α10 nAChR (Rattus norvegicus, UniProt P43144+Q9JLB5).
T3 construct: expressed in transfected cells; host or cells: Xenopus laevis oocytes injected with cRNA
T3 sequence (P43144 26-479): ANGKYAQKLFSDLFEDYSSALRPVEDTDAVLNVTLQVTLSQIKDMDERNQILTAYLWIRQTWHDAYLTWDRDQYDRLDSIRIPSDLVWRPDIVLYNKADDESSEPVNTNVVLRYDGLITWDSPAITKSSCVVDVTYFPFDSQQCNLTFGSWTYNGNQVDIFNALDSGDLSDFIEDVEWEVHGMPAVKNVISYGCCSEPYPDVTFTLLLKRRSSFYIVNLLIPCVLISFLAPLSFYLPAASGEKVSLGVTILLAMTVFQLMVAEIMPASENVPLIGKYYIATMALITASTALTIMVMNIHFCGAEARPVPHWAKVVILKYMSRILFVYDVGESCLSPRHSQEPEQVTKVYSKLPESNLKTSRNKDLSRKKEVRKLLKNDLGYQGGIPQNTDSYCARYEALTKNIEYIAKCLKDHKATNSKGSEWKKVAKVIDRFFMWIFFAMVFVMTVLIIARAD
T3 sequence (Q9JLB5 25-447): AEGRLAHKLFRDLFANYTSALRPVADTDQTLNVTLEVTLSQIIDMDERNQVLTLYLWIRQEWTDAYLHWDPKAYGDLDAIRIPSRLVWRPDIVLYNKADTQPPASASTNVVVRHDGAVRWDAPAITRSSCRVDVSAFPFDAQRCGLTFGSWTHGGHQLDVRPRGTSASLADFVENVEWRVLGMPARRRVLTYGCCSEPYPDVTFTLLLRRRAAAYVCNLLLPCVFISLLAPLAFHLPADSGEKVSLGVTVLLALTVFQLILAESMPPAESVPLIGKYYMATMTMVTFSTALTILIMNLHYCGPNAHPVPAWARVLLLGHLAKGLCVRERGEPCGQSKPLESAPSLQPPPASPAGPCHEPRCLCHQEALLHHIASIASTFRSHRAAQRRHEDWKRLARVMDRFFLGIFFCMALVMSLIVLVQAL
Description: cell-based. Particulars: for IC50: 500 μM ACh, X. laevis oocytes.

The next assay deals with SH-SY5Y cells. Description: Calcium imaging, effect of compound alone on [Ca2+]i in SH-SY5Y cells. To be noted: 10 μM, without α7 nAChR activation. The format is cell-based, human.

Regarding `N=C(N)NCCC[C@H](NC(=O)[C@H](CCCNC(=N)N)NC(=O)[C@H](CCCNC(=N)N)NC(=O)[C@H](CCCNC(=N)N)NC(=O)[C@H](CCCNC(=N)N)NC(=O)[C@H](CCCNC(=N)N)NC(=O)[C@H](CCCNC(=N)N)NC(=O)[C@@H](N)CCCNC(=N)N)C(=O)O` [R8, octa-arginine], the IC50 on human α7 nAChR was 14.5 ± 1 nM; on human α9α10 nAChR [1] it was 44 nM.
With `N=C(N)NCCC[C@@H]1NC(=O)[C@H](CCCNC(=N)N)NC(=O)[C@H](CCCNC(=N)N)NC(=O)[C@H](CCCNC(=N)N)NC(=O)[C@H](CCCNC(=N)N)NC(=O)[C@H](CCCNC(=N)N)NC(=O)[C@H](CCCNC(=N)N)NC(=O)[C@H](CCCNC(=N)N)NC(=O)[C@@H](N)CSSC[C@@H](C(=O)O)NC1=O` [“cyclo”R8] (H-CRRRRRRRRC-OH; disulfide 1-10), the IC50 is ~60 nM and 61.8 nM against human α9α10 nAChR [2]; 13.3 ± 3 nM against human α7 nAChR.
In the case of α-cobratoxin [CTX], the “Suppression of α7 nAChR activity” value with human α7 nAChR (compound 5 μM, 200 nM PNU282987, SH-SY5Y cells) was “completely suppressed”.
With `NCCCNCCCCNCCCN` [Spm, spermine], the “Inhibition of rat α9α10 nAChR at 500 μM” value at rat α9α10 nAChR is “no inhibition”. Also, the inhibition at 500 µM at human α7 nAChR (SH-SY5Y) is about 20%.
Turning to `CC(CN)CNCCCCNCC(C)CN` (racemic) [rac-2,11-Me2Spm], the IC50 on rat α9α10 nAChR (read-out: IC50, inhibition of rat α9α10 nAChR) is about 500000 nM.
Regarding `NCCCCN=C(N)N` [Agm, agmatine], the inhibition at 500 µM at human α7 nAChR (SH-SY5Y) was about 20%.
Regarding `N=C(N)NCCC[C@H](N)C(=O)NCCCNCCCNCCCCCNC(=O)[C@H](CC(N)=O)NC(=O)Cc1ccc(O)cc1O` [AgTx-636, argiotoxin-636], the IC50 against rat α9α10 nAChR (IC50, inhibition of ACh-evoked currents (rat α9α10 nAChR)) was ~200 nM and 220 nM. Besides, the inhibition at 10 µM at human α7 nAChR (SH-SY5Y, read-out: Inhibition of the action of α7 nAChR agonist PNU282987) was at least 70%. Besides, in the assay on SH-SY5Y cells, the “[Ca2+]i change caused by the compound alone” value is “noticeable [Ca^2+]i increase”.

A word on the IC50: it is the concentration that inhibits the measured activity by half. As a reminder, the inhibition is the relative decrease from the control value, in per cent.
